We go through 29 compounds from patent US10428044B2, “3-amino-1,5,6,7-tetrahydro-4H-indol-4-ones” (Bayer Pharma Aktiengesellschaft, priority 2014, dated 2019).

“And” between values parts separate entries of the source, which are not always exact repeats. Equal entries are not always repeated. Where only a bound is given, the exact number is not on record here.

For the test, the target named is (recombinant) catalytic domain of human Bub1 (amino acids 704-1085) (Homo sapiens (Human), UniProt O43683). Put plainly: Bub1 kinase assay (TR-FRET). In kind it is biochemical. The settings on record: ATP 10 μM final, peptide substrate 1 μM final, 60 min at 22° C., read-out: Biological Assay: Bub1 kinase assay median IC50. Here is the method: Examples were tested in selected biological assays one or more times. When tested more than once, data are reported as either average values or as median values, wherein • the average value, also referred to as the arithmetic mean value, represents the sum of the values obtained divided by the number of times tested, and • the median value represents the middle number of the group of values when ranked in ascending or descending order. If the number of values in the data set is odd, the median is the middle value. If the number of values in the data set is even, the median is the arithmetic mean of the two middle values.
(recombinant) catalytic domain of human Bub1 (amino acids 704-1085), sequence (O43683 704-1085): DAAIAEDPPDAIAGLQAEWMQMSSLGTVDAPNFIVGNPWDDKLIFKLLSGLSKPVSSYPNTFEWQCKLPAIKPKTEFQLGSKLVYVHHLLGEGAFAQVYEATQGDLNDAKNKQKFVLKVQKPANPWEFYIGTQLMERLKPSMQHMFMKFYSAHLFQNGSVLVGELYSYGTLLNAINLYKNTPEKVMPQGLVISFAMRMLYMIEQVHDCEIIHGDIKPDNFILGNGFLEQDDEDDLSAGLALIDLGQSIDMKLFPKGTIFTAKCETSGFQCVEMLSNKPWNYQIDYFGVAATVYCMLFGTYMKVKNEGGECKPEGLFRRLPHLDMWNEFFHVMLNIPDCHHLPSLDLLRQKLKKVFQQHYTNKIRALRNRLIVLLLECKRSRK
To this end, 100-fold concentrated compound solutions (in DMSO) were previously prepared by serial dilution (1:3.4) of 2 mM stocks in a clear low volume 384-well source microtiter plate (Greiner Bio-One, Frickenhausen, Germany), from which 50 nl of compounds were transferred into a black low volume test microtiter plate from the same supplier. […] The resulting mixture (5 μL final volume) was incubated at 22° C. during 60 min., and the reaction was stopped by the addition of 5 μL of an aqueous EDTA-solution (50 mM EDTA, in 100 mM HEPES pH 7.5 and 0.2% (w/v) bovine serum albumin) which also contained the TR-FRET detection reagents (0.2 μM streptavidin-XL665 [Cisbio Bioassays, Codolet, France] and 1 nM anti-phosho-Serine antibody [Merck Millipore, cat. #35-002] and 0.4 nM LANCE EU-W1024 labeled anti-mouse IgG antibody [Perkin-Elmer, product no. AD0077, alternatively a Terbium-cryptate-labeled anti-mouse IgG antibody from Cisbio Bioassays can be used]). The stopped reaction mixture was further incubated 1 h at 22° C. in order to allow the formation of complexes between peptides and detection reagents. Subsequently, the amount of product was evaluated by measurement of the resonance energy transfer from the Eu-chelate-antibody complex recognizing the Phosphoserine residue to the streptavidin-XL665 bound to the biotin moiety of the peptide. […] The data were normalised using two sets of control wells for high- (=enzyme reaction without inhibitor=0%=Minimum inhibition) and low- (=all assay components without enzyme=100%=Maximum inhibition) Bub1 activity. IC50 values were calculated by fitting the normalized inhibition data to a 4-parameter logistic equation (Minimum, Maximum, IC50, Hill; Y=Max+(Min−Max)/(1+(X/IC50)Hill)).
In general terms: TR-FRET usually uses a lanthanide donor and a delayed reading to cut background.
Turning to `O=C1CCCc2[nH]c(-c3ccnc(NC(=O)C4CCC4)c3)c(Nc3ccccc3)c21` [Example 229, N-{4-[4-oxo-3-(phenylamino)-4,5,6,7-tetrahydro-1H-indol-2-yl]pyridin-2-yl}cyclobutanecarboxamide], the IC50 was determined as 19.4 nM.

Take `O=C1CCCc2[nH]c(-c3ccncc3)c(Nc3ccc(F)cc3)c21` [Example 42, 3-[(4-fluorophenyl)amino]-2-(pyridin-4-yl)-1,5,6,7-tetrahydro-4H-indol-4-one]: the IC50 is 23 nM. Regarding `O=C(Nc1cc(-c2[nH]c3c(c2Nc2ccccc2)C(=O)CCC3)ccn1)c1nccs1` [Example 270, N-{4-[4-oxo-3-(phenylamino)-4,5,6,7-tetrahydro-1H-indol-2-yl]pyridin-2-yl}-1,3-thiazole-2-carboxamide], the IC50 was found to be 29.4 nM.

On to `CC1(C)CC(=O)c2c([nH]c(-c3ccnc(N)c3)c2Nc2cccc(Br)c2)C1` [Example 203, 2-(2-aminopyridin-4-yl)-3-[(3-bromophenyl)amino]-6,6-dimethyl-1,5,6,7-tetrahydro-4H-indol-4-one], for which the IC50 amounted to 115 nM. In the case of `O=C1CCCc2[nH]c(-c3ccnc(NC(=O)C4C[C@@H]4F)c3)c(Nc3ccccc3)c21` (mixture of isomers) [Example 249, rel-(R,S/S,R)-2-fluoro-N-{4-[4-oxo-3-(phenylamino)-4,5,6,7-tetrahydro-1H-indol-2-yl]pyridin-2-yl}cyclopropanecarboxamide], the IC50 is 16.4 nM and 7.55 nM. The figure for `CC1(C)CC(=O)c2c([nH]c(-c3ccncc3)c2Nc2ccc(F)c(C#N)c2)C1` [Example 147, 5-{[6,6-dimethyl-4-oxo-2-(pyridin-4-yl)-4,5,6,7-tetrahydro-1H-indol-3-yl]amino}-2-fluorobenzonitrile] is 258 nM; for `CC1(C)CC(=O)c2c([nH]c(-c3cc(Cl)nc(Cl)c3)c2Nc2ccccc2)C1` [Example 216, 2-(2,6-dichloropyridin-4-yl)-6,6-dimethyl-3-(phenylamino)-1,5,6,7-tetrahydro-4H-indol-4-one] it is > 20000 nM; for `CCOc1cnccc1-c1[nH]c2c(c1Nc1ccccc1)C(=O)CC(C)(C)C2` [Example 404, 2-(3-ethoxypyridin-4-yl)-6,6-dimethyl-3-(phenylamino)-1,5,6,7-tetrahydro-4H-indol-4-one] it is 11.7 nM. As for `O=C(Nc1cc(-c2[nH]c3c(c2Nc2ccccc2)C(=O)CCC3)ccn1)c1ccsn1` [Example 276, N-{4-[4-oxo-3-(phenylamino)-4,5,6,7-tetrahydro-1H-indol-2-yl]pyridin-2-yl}-1,2-thiazole-3-carboxamide], the half-inhibitory concentration (IC50) turned out to be 18.4 nM. With `O=C1CCCc2[nH]c(-c3ccnc(N(C(=O)C4CC4)C(=O)C4CC4)c3)c(Nc3cccc(F)c3)c21` [Example 162, N-(cyclopropylcarbonyl)-N-(4-{3-[(3-fluorophenyl)amino]-4-oxo-4,5,6,7-tetrahydro-1H-indol-2-yl}pyridin-2-yl)cyclopropanecarboxamide], the IC50 amounted to 85.6 nM. `CC1(C)CC(=O)c2c([nH]c(-c3ccncc3)c2Nc2ccc3occc3c2)C1` [Example 67, 3-(1-benzofuran-5-ylamino)-6,6-dimethyl-2-(pyridin-4-yl)-1,5,6,7-tetrahydro-4H-indol-4-one]: the IC50 was 87.1 nM. Regarding `CC(C)(F)C(=O)Nc1cc(-c2[nH]c3c(c2Nc2ccccc2)C(=O)CCC3)ccn1` [Example 242, 2-fluoro-2-methyl-N-{4-[4-oxo-3-(phenylamino)-4,5,6,7-tetrahydro-1H-indol-2-yl]pyridin-2-yl}propanamide], the IC50 was determined as 182 nM. As to `CS(=O)(=O)CCn1c2c(c(Nc3ccccc3)c1-c1ccncc1)C(=O)CCC2` [Example 176, 1-[2-(methylsulfonyl)ethyl]-3-(phenylamino)-2-(pyridin-4-yl)-1,5,6,7-tetrahydro-4H-indol-4-one], the IC50 worked out at 2040 nM. For `CC(C)(C)n1cc(C(=O)Nc2cc(-c3[nH]c4c(c3Nc3ccccc3)C(=O)CCC4)ccn2)cn1` [Example 448, 1-tert-butyl-N-{4-[4-oxo-3-(phenylamino)-4,5,6,7-tetrahydro-1H-indol-2-yl]pyridin-2-yl}-1H-pyrazole-4-carboxamide], the half-inhibitory concentration (IC50) stood at 8.93 nM.

As to `O=C1CC(C(F)(F)F)Cc2[nH]c(-c3ccncc3Cl)c(Nc3cccc(F)c3)c21` (centres unmarked) [Example 436, 2-(3-chloropyridin-4-yl)-3-[(3-fluorophenyl)amino]-6-(trifluoromethyl)-1,5,6,7-tetrahydro-4H-indol-4-one], the IC50 was determined as 20.9 nM. With `Nc1cc(-c2[nH]c3c(c2Nc2cccc(F)c2)C(=O)CCC3)ccn1` [Example 138, 2-(2-aminopyridin-4-yl)-3-[(3-fluorophenyl)amino]-1,5,6,7-tetrahydro-4H-indol-4-one] the figure was 92.4 nM; with `CC1(C)CC(=O)c2c([nH]c(-c3ccncc3OCC3CC3)c2Nc2ccccc2)C1` [Example 411, 2-[3-(cyclopropylmethoxy)pyridin-4-yl]-6,6-dimethyl-3-(phenylamino)-1,5,6,7-tetrahydro-4H-indol-4-one], 6.86 nM. The figure for `O=C(Cc1ccco1)Nc1cc(-c2[nH]c3c(c2Nc2ccccc2)C(=O)CCC3)ccn1` [Example 288, 2-(furan-2-yl)-N-{4-[4-oxo-3-(phenylamino)-4,5,6,7-tetrahydro-1H-indol-2-yl]pyridin-2-yl}acetamide] is 16.7 nM.

Consider `O=C1CCCc2[nH]c(-c3ccnc(NCc4cscn4)c3)c(Nc3ccccc3)c21` [Example 501, 3-(phenylamino)-2-{2-[(1,3-thiazol-4-ylmethyl)amino]pyridin-4-yl}-1,5,6,7-tetrahydro-4H-indol-4-one], for which the half-maximal inhibitory concentration (IC50) is 96.7 nM.

Regarding `O=C1CCCc2[nH]c(-c3ccnc(NCCCc4ccccc4)c3)c(Nc3ccccc3)c21` [Example 490, 3-(phenylamino)-2-{2-[(3-phenylpropyl)amino]pyridin-4-yl}-1,5,6,7-tetrahydro-4H-indol-4-one], the IC50 was 2560 nM. With `CC(=O)Nc1cc(-c2[nH]c3c(c2Nc2ccc(F)cc2)C(=O)CC(C(C)C)C3)ccn1` (centres unmarked) [Example 321, N-{4-[3-[(4-fluorophenyl)amino]-4-oxo-6-(propan-2-yl)-4,5,6,7-tetrahydro-1H-indol-2-yl]pyridin-2-yl}acetamide] the figure was 11.2 nM; with `CC(=O)Nc1cc(-c2[nH]c3c(c2Nc2ccccc2)C(=O)CC(CF)C3)ccn1` (centres unmarked) [Example 461, N-{4-[6-(fluoromethyl)-4-oxo-3-(phenylamino)-4,5,6,7-tetrahydro-1H-indol-2-yl]pyridin-2-yl}acetamide], 6.88 nM; with `CC1(C)CC(=O)c2c([nH]c(-c3ccncc3Cl)c2Nc2ccccc2)C1` [Example 2, 2-(3-chloropyridin-4-yl)-6,6-dimethyl-3-(phenylamino)-1,5,6,7-tetrahydro-4H-indol-4-one], 8.98 nM. For the compound `CC1(C)CC(=O)c2c([nH]c(-c3ccncc3)c2Nc2cc(F)cc(F)c2)C1` [Example 31, 3-[(3,5-difluorophenyl)amino]-6,6-dimethyl-2-(pyridin-4-yl)-1,5,6,7-tetrahydro-4H-indol-4-one], the IC50 is 5.55 nM. `CC1(C)CC(=O)c2c([nH]c(-c3ccncc3)c2Nc2ccc3nc[nH]c3c2)C1` [Example 73, 3-(1H-benzimidazol-6-ylamino)-6,6-dimethyl-2-(pyridin-4-yl)-1,5,6,7-tetrahydro-4H-indol-4-one]: the IC50 was determined as 19900 nM. For `CC1(C)CC(=O)c2c([nH]c(-c3ccncc3)c2Nc2cccc(C#N)c2)C1` [Example 79, 3-{[6,6-dimethyl-4-oxo-2-(pyridin-4-yl)-4,5,6,7-tetrahydro-1H-indol-3-yl]amino}benzonitrile], the IC50 was 133 nM.

In the case of `CNCCC(=O)Nc1cc(-c2[nH]c3c(c2Nc2ccccc2)C(=O)CCC3)ccn1` [Example 300, N^2-methyl-N-{4-[4-oxo-3-(phenylamino)-4,5,6,7-tetrahydro-1H-indol-2-yl]pyridin-2-yl}-beta-alaninamide], the IC50 amounted to 475 nM.

`CC1(C)CC(=O)c2c(Nc3ccccc3)c(-c3ccncc3)n(Cc3ccccc3)c2C1` [Example 186, 1-benzyl-6,6-dimethyl-3-(phenylamino)-2-(pyridin-4-yl)-1,5,6,7-tetrahydro-4H-indol-4-one]: the IC50 is 2940 nM. For `CC1(C)CC(=O)c2c([nH]c(-c3ccncc3)c2Nc2ccc(Cc3ccccc3)cc2)C1` [Example 513, 3-[(4-benzylphenyl)amino]-6,6-dimethyl-2-(pyridin-4-yl)-1,5,6,7-tetrahydro-4H-indol-4-one], the IC50 is > 20000 nM.

The term IC50 denotes the point on the concentration scale where inhibition reaches its midpoint.
